Test: Dissociation constant, pKa of compound
Type: physicochemical

Row | Structure (SMILES) | pKa
1 | Nc1ccc(C#CC#Cc2ccccc2)c(O)c1 | 2.7
2 | O=S(=O)(Nc1ccc(C#CC#Cc2ccccc2)cc1)C(F)(F)F | 4.1
3 | Nc1cccc(C#CC#Cc2ccccc2)c1 | 3.5
4 | C(C#Cc1c[nH]cn1)#Cc1ccccc1 | 4
5 | Nc1cc(C#CC#Cc2ccccc2)ccn1 | 5
6 | Oc1c(F)cc(C#CC#Cc2ccccc2)cc1F | 6.2
7 | Nc1ccc(C#CC#Cc2ccc(O)cc2)cc1 | 2.8
8 | Oc1ccc(C#CC#Cc2ccccc2)cc1 | 9.5
9 | C(C#Cc1ccncc1)#Cc1ccccc1 | 3.3
10 | Oc1ccc(C#CC#Cc2ccccc2)c(F)c1 | 8.5
11 | Oc1ccc(C#CC#Cc2ccccc2)cc1F | 7.9
12 | Nc1ccc(C#CC#Cc2ccccc2)cc1 | 2.7
